Test results published in ChEMBL document CHEMBL2385026, “Identification of C-2 hydroxyethyl imidazopyrrolopyridines as potent JAK1 inhibitors with favorable physicochemical properties and high selectivity over JAK2” (J Med Chem, 2013).
In brackets after ≈: the same amount, converted by molar mass.

Legend:
[1] = AUC in cynomolgus monkey at 2 mg/kg, po by LC/MS/MS analysis; type: ADME, organism-based, Macaca fascicularis; parameters: dose 2 mg/kg, route oral; conditions: plasma
[2] = (§1) Oral bioavailability in Beagle dog at 2 mg/kg by LC/MS/MS analysis; type: ADME, organism-based, Canis lupus familiaris; conditions: Beagle, in vivo
[3] = target: T1, Non-receptor tyrosine-protein kinase TYK2 (Homo sapiens, UniProt P29597)
[4] = target: T2, Cytochrome P450 3A4 (Homo sapiens, UniProt P08684); test: Reversible inhibition of CYP3A4 in human liver microsomes using testosterone as substrate by LC/MS/MS analysis; type: ADME, Microsome
[5] = Plasma protein binding in cynomolgus monkey; type: ADME, cell-free, Macaca fascicularis; conditions: read-out: PPB (converted)
[6] = Clearance in cynomolgus monkey at 0.4 mg/kg, iv by LC/MS/MS analysis; type: ADME, organism-based, Macaca fascicularis; parameters: dose 0.4 mg/kg, route intravenous; conditions: in vivo
[7] = system: Rattus norvegicus; test: (§2) Oral bioavailability in Sprague-Dawley rat at 2 mg/kg by LC/MS/MS analysis; type: ADME, organism-based; conditions: in vivo
[8] = Clearance in Sprague-Dawley rat at 0.4 mg/kg, iv by LC/MS/MS analysis; type: ADME, organism-based; parameters: dose 0.4 mg/kg, route intravenous; conditions: in vivo
[9] = Metabolic stability in rat hepatocytes assessed as hepatic clearance; type: ADME, cell-based, Liver, Hepatocyte
[10] = target: T3, Tyrosine-protein kinase JAK1 (Homo sapiens, UniProt P23458)
[11] = Metabolic stability in dog hepatocytes assessed as hepatic clearance; type: ADME, cell-based, Canis lupus familiaris, Liver, Hepatocyte
[12] = AUC in Beagle dog at 2 mg/kg, po by LC/MS/MS analysis; type: ADME, organism-based, Canis lupus familiaris; parameters: dose 2 mg/kg, route oral; conditions: plasma
[13] = Half life in cynomolgus monkey at 0.4 mg/kg, iv by LC/MS/MS analysis; type: ADME, organism-based, Macaca fascicularis; parameters: dose 0.4 mg/kg, route intravenous; conditions: in vivo
[14] = target: T1, Non-receptor tyrosine-protein kinase TYK2; remark: listed apart in the source
[15] = Thermodynamic solubility in aqueous buffer at pH 2; type: physicochemical; conditions: read-out: Therm_solubility
[16] = target: T2, Cytochrome P450 3A4; test: Reversible inhibition of CYP3A4 in human liver microsomes using midazolam as substrate by LC/MS/MS analysis; type: ADME, Microsome
[17] = target: Cytochrome P450 2C9 (Homo sapiens, UniProt P11712)
[18] = Plasma protein binding in dog; type: ADME, cell-free, Canis lupus familiaris; conditions: read-out: PPB (converted)
[19] = Half life in Beagle dog at 0.4 mg/kg, iv by LC/MS/MS analysis; type: ADME, organism-based, Canis lupus familiaris; parameters: dose 0.4 mg/kg, route intravenous; conditions: in vivo
[20] = AUC in Sprague-Dawley rat at 2 mg/kg, po by LC/MS/MS analysis; type: ADME, organism-based; parameters: dose 2 mg/kg, route oral; conditions: plasma
[21] = Apparent permeability across basolateral to apical side in dog MDCK cells; type: ADME, cell-based, Canis lupus familiaris
[22] = Thermodynamic solubility in aqueous buffer at pH 7.4; type: physicochemical; conditions: read-out: Therm_solubility
[23] = Cmax in Beagle dog at 2 mg/kg, po by LC/MS/MS analysis; type: ADME, organism-based, Canis lupus familiaris; parameters: dose 2 mg/kg, route oral; conditions: in vivo
[24] = Hepatic clearance in human liver microsomes by LC/MS/MS analysis; type: ADME, Microsome
[25] = target: T3, Tyrosine-protein kinase JAK1; remark: listed apart in the source
[26] = Cmax in Sprague-Dawley rat at 2 mg/kg, po by LC/MS/MS analysis; type: ADME, organism-based; parameters: dose 2 mg/kg, route oral; conditions: in vivo
[27] = Metabolic stability in monkey hepatocytes assessed as hepatic clearance; type: ADME, cell-based, Macaca mulatta, Liver, Hepatocyte; conditions: rhesus monkey
[28] = Cmax in cynomolgus monkey at 2 mg/kg, po by LC/MS/MS analysis; type: ADME, organism-based, Macaca fascicularis; parameters: dose 2 mg/kg, route oral; conditions: in vivo
[29] = Oral bioavailability in cynomolgus monkey at 2 mg/kg by LC/MS/MS analysis; type: ADME, organism-based, Macaca fascicularis; conditions: in vivo
[30] = Hepatic clearance in human hepatocytes after 1 to 4 hrs by LC/MS/MS analysis; type: ADME, cell-based, Liver, Hepatocyte
[31] = Half life in Sprague-Dawley rat at 0.4 mg/kg, iv by LC/MS/MS analysis; type: ADME, organism-based; parameters: dose 0.4 mg/kg, route intravenous; conditions: in vivo
[32] = Plasma protein binding in rat; type: ADME, cell-free; conditions: read-out: PPB (converted)
[33] = target: T3, Tyrosine-protein kinase JAK1; remark: listed apart in the source
[34] = target: Voltage-gated inwardly rectifying potassium channel KCNH2 (Homo sapiens, UniProt Q12809)
[35] = target: Cytochrome P450 2D6 (Homo sapiens, UniProt P10635)
[36] = target: T4, Cytochrome P450 1A2 (Homo sapiens, UniProt P05177); test: Reversible inhibition of CYP1A2 in human liver microsomes using phenacetin as substrate by LC/MS/MS analysis; type: ADME, Microsome
T4 sequence (P05177 whole entry): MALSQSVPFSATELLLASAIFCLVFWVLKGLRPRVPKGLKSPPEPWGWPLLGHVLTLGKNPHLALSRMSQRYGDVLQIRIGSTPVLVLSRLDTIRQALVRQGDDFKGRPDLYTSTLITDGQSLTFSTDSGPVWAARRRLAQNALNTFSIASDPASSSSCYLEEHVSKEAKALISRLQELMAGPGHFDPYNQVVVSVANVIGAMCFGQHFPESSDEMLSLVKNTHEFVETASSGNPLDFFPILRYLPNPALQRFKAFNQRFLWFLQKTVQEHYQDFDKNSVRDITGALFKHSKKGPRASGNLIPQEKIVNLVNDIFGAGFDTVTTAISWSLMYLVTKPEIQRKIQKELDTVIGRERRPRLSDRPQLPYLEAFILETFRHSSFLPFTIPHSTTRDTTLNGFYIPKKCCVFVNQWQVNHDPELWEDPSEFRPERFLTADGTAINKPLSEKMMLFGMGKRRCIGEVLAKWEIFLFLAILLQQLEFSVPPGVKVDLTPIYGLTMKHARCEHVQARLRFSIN

[37] = Clearance in Beagle dog at 0.4 mg/kg, iv by LC/MS/MS analysis; type: ADME, organism-based, Canis lupus familiaris; parameters: dose 0.4 mg/kg, route intravenous; conditions: in vivo
[38] = target: Cytochrome P450 2C19 (Homo sapiens, UniProt P33261)
[39] = Apparent permeability across apical to basolateral side in dog MDCK cells; type: ADME, cell-based, Canis lupus familiaris
[40] = system: Canis familiaris; test: as §1; type: ADME, organism-based, Canis lupus familiaris; conditions: in vivo
[41] = target: Tyrosine-protein kinase JAK3 (Homo sapiens, UniProt P52333)
[42] = as §2; type: ADME, organism-based; conditions: Sprague-Dawley, in vivo

T3 sequence (P23458 whole entry): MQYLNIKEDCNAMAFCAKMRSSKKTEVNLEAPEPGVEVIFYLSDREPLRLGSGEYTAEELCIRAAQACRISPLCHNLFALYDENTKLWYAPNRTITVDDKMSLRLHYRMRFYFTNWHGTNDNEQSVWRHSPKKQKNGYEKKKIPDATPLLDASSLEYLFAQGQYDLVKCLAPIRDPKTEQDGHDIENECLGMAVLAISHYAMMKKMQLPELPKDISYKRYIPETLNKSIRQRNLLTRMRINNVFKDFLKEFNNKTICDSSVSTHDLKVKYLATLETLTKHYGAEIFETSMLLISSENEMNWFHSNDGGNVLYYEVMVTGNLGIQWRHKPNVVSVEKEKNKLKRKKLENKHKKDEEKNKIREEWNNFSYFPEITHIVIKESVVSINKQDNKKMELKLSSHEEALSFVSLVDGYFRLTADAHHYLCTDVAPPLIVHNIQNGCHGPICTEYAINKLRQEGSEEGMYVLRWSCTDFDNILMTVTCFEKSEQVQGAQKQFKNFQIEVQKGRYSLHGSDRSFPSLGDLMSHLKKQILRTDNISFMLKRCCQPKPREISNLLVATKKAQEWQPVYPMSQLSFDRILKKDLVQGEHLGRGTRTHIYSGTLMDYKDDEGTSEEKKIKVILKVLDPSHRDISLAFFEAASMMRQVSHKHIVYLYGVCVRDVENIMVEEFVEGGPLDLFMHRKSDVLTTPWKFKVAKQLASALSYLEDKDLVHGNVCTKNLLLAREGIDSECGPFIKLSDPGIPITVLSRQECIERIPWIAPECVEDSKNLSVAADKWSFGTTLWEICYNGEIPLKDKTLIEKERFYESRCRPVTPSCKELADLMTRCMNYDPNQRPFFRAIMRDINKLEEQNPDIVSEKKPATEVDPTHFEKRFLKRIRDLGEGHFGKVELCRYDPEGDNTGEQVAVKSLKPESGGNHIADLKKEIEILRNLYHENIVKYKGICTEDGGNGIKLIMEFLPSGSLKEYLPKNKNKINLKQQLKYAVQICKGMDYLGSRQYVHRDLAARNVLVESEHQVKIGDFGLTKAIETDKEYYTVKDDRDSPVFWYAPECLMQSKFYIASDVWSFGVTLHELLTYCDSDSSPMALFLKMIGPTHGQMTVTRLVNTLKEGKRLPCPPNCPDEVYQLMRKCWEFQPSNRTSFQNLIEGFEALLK
T1 sequence (P29597 whole entry): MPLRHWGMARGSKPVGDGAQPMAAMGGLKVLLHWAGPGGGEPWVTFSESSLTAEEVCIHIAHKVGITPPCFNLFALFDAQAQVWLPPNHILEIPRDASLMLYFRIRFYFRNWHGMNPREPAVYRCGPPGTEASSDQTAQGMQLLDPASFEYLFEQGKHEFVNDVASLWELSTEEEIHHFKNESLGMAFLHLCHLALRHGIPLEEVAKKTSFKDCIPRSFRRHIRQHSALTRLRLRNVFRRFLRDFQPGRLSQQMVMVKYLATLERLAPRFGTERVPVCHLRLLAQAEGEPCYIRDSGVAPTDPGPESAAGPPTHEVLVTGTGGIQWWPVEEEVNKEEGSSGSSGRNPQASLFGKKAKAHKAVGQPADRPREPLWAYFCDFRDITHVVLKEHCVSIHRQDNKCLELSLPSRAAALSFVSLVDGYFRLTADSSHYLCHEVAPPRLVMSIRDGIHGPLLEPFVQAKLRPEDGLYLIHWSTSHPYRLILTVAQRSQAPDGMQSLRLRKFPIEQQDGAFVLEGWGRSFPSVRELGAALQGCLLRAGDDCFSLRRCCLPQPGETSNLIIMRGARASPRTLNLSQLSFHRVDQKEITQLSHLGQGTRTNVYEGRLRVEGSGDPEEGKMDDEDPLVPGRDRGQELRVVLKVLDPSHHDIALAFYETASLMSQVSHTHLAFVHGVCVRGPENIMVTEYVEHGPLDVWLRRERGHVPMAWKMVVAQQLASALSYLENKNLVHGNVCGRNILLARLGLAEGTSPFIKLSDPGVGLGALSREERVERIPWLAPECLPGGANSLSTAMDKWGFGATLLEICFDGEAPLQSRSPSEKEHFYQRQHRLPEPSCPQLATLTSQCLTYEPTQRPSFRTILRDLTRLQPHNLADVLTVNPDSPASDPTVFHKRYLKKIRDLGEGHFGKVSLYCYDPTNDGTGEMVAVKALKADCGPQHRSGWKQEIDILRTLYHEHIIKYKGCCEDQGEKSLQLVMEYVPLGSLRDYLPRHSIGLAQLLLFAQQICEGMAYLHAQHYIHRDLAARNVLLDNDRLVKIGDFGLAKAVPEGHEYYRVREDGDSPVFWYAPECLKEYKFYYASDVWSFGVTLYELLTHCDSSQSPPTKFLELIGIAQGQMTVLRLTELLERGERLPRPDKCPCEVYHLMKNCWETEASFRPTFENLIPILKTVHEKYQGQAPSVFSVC
T2 sequence (P08684 whole entry): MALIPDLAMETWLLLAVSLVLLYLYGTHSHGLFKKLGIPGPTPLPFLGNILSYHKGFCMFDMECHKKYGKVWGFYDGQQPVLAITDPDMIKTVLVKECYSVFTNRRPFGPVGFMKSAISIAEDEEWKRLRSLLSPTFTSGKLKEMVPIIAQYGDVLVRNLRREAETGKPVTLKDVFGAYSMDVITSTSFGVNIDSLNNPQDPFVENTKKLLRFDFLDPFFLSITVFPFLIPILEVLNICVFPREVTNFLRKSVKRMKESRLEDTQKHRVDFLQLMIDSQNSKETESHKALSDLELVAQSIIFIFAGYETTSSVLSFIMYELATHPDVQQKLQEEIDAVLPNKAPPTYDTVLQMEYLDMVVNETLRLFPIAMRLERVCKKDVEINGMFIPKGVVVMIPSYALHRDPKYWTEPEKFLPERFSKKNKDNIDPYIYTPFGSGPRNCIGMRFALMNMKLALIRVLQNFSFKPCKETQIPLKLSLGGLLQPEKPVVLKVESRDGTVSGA
Cytochrome P450 2C19, sequence (P33261 whole entry): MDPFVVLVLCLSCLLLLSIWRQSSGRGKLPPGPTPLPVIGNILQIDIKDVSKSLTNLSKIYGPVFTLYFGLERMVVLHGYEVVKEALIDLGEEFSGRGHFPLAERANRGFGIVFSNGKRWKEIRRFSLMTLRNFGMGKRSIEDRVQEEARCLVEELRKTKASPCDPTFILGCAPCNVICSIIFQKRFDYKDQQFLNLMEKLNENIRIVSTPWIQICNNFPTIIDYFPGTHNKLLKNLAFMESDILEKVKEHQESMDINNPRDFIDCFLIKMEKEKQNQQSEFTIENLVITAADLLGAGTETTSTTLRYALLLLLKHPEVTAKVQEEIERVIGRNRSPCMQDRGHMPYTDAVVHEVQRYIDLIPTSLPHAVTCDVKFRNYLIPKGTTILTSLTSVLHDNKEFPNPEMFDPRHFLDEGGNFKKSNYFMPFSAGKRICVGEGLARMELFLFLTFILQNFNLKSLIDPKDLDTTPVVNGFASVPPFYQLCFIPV
Cytochrome P450 2C9, sequence (P11712 whole entry): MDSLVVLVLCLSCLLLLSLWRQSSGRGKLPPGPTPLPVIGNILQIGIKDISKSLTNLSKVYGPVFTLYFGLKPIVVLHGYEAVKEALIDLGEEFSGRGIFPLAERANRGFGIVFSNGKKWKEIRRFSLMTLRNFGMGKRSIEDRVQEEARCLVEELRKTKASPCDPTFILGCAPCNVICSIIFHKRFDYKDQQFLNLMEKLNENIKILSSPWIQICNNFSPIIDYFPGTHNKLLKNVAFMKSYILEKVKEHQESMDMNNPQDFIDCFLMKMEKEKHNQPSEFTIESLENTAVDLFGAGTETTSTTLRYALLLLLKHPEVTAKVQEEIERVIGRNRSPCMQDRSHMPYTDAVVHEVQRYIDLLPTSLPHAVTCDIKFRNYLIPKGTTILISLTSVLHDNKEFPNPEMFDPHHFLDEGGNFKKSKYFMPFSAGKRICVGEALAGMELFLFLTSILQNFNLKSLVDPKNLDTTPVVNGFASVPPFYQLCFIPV
Cytochrome P450 2D6, sequence (P10635 whole entry): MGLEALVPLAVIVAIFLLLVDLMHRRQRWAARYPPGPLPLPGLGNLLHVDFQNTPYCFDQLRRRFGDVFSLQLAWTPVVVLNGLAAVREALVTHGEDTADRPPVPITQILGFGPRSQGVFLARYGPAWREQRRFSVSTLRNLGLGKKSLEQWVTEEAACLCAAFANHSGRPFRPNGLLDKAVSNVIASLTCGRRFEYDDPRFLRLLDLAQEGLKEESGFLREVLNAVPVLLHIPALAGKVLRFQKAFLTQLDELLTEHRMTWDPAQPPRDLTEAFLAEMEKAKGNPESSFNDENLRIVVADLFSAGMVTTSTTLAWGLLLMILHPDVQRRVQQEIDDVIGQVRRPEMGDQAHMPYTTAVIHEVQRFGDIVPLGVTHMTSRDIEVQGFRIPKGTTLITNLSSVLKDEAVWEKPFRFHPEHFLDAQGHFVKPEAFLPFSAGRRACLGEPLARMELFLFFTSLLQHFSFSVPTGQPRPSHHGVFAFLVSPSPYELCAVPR

| Compound | EC50 [3] [nM] | IC50 [4] [µM] | fraction unbound [5] | clearance [8] [mL/min/kg] | CLhep predicted [9] [mL/min/kg] | EC50 [10] [nM] | CLhep predicted [11] [mL/min/kg] | AUC [12] [µM·h] | Ki [14] [nM] | solubility thermodynamic [15] [mM] | IC50 [16] [µM] | IC50 [17] [µM] | fraction unbound [18] | half-life [19] [min] | AUC [20] [µM·h] | Papp B→A [21] [×10⁻⁶ cm/s] | solubility thermodynamic [22] [µM] | Cmax [23] [µM] | CLhep predicted [24] [mL/min/kg] | Ki [25] [nM] | further results |
| --- | --- | --- | --- | --- | --- | --- | --- | --- | --- | --- | --- | --- | --- | --- | --- | --- | --- | --- | --- | --- | --- |
| C[C@@H](O)c1nc2cnc3[nH]ccc3c2n1[C@H]1CCCOC1 | > 5800 | > 10 | 0.46 | 22 | 2.3 | 110 | 4.9 | 65.7 | 31 | > 4 | > 10 | > 10 | 0.39 | 342 | 10.7 | 8.6 | > 4000 | 9.8 | 2 | 2.8 | AUC [1]: 4.3 µM·h; bioavailability [2]: 111%; clearance [6]: 19 mL/min/kg; F [7]: 197%; half-life [13]: 66 min; Cmax [26]: 5.2 µM; CLhep predicted [27]: 21 mL/min/kg; Cmax [28]: 1800 nM; bioavailability [29]: 70%; CLhep predicted [30]: 1.9 mL/min/kg; half-life [31]: 90 min; fraction unbound [32]: 0.61; EC50 [33]: 180 nM; IC50 [34]: > 100 µM; IC50 [35]: > 10 µM; IC50 [36]: > 10 µM; clearance [37]: 2.1 mL/min/kg; IC50 [38]: > 10 µM; Papp A→B [39]: 7.6 ×10⁻⁶ cm/s |
| C[C@@H](O)c1nc2cnc3[nH]ccc3c2n1[C@H]1CC[C@H](CC#N)CC1 | 100 | > 10 | 0.3 | 38 | 15 | 5.7 | 12 | 11.2 | 0.4 | > 4 | 8.8 | > 10 | 0.37 | 108 | 1.3 | 4.9 | 130 (≈ 42 µg/mL) | 2.5 | 5.2 | 0.1 | F [40]: 183%; Ki [41]: 5.9 nM; bioavailability [42]: 49%; Cmax [26]: 0.93 µM; CLhep predicted [27]: 25 mL/min/kg; CLhep predicted [30]: 6.8 mL/min/kg; half-life [31]: 30 min; fraction unbound [32]: 0.37; EC50 [33]: 28 nM; IC50 [35]: > 10 µM; IC50 [36]: > 10 µM; clearance [37]: 17 mL/min/kg; IC50 [38]: > 10 µM; Papp A→B [39]: 3.5 ×10⁻⁶ cm/s |
